How the values were obtained:
Experiment in all cases: Cysteine liganding, probe competition
Type in all cases: binding
[1] = target: T1, EEF1A1 Elongation factor 1-alpha 1 (Homo sapiens, UniProt P68104)
T1 construct: 200 μL of lysate containing 5 mg/ml proteome was treated with 2 μL of 100× compound stock; endogenous in cells
T1 sequence (P68104 1-462): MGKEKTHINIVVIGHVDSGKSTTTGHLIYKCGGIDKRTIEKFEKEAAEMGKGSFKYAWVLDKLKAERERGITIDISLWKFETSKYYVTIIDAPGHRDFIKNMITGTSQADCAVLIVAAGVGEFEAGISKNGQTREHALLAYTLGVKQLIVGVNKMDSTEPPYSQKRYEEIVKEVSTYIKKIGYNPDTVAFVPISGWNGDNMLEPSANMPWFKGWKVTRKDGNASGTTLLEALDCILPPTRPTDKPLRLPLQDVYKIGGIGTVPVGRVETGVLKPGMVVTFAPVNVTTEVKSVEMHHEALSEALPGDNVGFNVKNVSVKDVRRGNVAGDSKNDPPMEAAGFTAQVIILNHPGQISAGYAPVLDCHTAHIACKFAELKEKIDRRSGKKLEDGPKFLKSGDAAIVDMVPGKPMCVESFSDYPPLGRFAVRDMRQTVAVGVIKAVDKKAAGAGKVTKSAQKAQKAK
Summary of the method: (§1)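 Read-out is loss of desthiobiotin iodoacetamide labelling at cysteines, measured on streptavidin-enriched tryptic peptides. Compound preincubation ran 1 hr at 25° C in PBS lysate holding 5 mg/ml proteome before the probe was added.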

[2] = target: T2, PDCD11 Protein RRP5 homolog (Homo sapiens, UniProt Q14690)
T2 construct: Cells were resuspended in cold PBS on ice and sonicated with a probe sonicator to achieve lysis; endogenous in cells
Summary of the method: as §1

PML Protein PML = target: T3, PML Protein PML (Homo sapiens, UniProt P29590)
T3 construct: Cells were resuspended in cold PBS on ice and sonicated with a probe sonicator to achieve lysis; endogenous in cells
T3 sequence (P29590 1-882): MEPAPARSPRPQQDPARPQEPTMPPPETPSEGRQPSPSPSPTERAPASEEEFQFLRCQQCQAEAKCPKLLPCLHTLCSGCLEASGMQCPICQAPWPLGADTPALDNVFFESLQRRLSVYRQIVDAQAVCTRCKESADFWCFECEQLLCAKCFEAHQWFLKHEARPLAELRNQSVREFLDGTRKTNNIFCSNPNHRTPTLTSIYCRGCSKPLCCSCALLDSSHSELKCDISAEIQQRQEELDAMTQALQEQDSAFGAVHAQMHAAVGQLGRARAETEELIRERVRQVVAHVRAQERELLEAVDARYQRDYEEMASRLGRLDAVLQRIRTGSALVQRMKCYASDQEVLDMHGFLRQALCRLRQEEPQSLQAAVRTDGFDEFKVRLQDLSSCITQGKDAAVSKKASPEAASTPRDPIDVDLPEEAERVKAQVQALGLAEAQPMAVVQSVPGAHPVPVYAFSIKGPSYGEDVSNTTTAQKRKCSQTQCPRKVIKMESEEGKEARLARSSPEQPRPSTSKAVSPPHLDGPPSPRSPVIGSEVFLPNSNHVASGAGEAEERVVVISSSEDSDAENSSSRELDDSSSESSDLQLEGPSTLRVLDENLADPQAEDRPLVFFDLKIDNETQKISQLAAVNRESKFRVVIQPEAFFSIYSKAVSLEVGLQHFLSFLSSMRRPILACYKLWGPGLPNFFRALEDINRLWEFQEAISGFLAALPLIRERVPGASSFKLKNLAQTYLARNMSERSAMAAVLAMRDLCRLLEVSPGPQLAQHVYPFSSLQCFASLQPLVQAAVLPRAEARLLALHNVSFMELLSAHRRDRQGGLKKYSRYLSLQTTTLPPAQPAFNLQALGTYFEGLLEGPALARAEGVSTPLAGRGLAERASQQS
Summary of the method: as §1

[3] = EEF1A1 Res# 363, uniprot P68104
[4] = EEF1A1 Res# 370, uniprot P68104

T2 sequence (Q14690 whole entry): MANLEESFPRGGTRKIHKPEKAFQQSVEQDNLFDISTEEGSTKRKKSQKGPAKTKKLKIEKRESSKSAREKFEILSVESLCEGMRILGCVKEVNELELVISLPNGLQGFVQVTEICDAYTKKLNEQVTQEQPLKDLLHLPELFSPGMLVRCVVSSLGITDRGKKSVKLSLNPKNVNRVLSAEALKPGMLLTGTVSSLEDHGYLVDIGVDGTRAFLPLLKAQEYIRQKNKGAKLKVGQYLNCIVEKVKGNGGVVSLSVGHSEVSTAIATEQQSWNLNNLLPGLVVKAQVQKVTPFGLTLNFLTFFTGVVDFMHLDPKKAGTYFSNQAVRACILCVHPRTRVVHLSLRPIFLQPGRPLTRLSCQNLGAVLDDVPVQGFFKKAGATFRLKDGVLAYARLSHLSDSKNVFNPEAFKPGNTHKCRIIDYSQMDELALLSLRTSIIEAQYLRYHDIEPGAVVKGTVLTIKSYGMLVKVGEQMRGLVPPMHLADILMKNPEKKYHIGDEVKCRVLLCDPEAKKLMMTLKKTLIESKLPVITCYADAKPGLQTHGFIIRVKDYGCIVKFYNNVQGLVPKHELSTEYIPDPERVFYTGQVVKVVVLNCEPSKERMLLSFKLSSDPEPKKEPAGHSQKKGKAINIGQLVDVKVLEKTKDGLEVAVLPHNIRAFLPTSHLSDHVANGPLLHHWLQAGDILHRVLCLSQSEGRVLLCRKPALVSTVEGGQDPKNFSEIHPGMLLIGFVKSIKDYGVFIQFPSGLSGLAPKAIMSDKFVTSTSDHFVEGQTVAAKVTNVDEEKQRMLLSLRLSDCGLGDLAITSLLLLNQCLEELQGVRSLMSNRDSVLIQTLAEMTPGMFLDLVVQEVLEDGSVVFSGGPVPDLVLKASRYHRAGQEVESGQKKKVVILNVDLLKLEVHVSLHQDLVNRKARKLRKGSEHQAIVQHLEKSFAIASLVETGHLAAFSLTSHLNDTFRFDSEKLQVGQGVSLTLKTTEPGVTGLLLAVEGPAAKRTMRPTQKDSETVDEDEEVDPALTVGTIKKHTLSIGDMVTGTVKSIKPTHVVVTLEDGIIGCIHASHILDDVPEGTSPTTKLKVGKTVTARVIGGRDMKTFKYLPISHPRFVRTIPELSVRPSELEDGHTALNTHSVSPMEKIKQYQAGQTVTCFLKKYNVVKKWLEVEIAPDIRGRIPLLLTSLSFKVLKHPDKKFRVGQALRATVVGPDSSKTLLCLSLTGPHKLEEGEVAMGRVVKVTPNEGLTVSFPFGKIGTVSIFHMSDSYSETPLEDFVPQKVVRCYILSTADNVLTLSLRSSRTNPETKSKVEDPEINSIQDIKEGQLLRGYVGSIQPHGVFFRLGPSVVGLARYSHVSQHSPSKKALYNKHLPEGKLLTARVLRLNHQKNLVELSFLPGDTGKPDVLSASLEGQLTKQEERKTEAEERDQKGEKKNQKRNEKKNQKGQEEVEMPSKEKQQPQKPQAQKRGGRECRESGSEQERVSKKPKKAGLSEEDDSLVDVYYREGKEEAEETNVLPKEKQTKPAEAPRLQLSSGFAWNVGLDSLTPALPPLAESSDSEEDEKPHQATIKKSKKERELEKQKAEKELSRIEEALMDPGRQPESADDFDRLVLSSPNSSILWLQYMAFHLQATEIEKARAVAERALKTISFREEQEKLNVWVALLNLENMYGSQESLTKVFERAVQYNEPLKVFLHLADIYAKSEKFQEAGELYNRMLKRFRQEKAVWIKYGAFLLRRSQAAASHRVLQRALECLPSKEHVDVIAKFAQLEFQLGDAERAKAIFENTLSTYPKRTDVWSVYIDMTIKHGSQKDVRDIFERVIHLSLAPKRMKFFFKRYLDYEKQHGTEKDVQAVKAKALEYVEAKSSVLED

SMILES	Liganded [1, 3]	Liganded [1, 4]	100 Max ([2]; uniprot Q14690)	100 ave ([2]; uniprot Q14690)	500 ave ([2]; uniprot Q14690)	500 Max ([2]; uniprot Q14690, in % (unit assumed))	KB03_500 uM_percent_inhibition (PML Protein PML; UniProt P29590, 500 uM) [%]	Liganded ([2]; PDCD11 Res# 361, uniprot Q14690)	Liganded (PML Protein PML; PML Res# 479, uniprot P29590)	Liganded (PML Protein PML; PML Res# 484, uniprot P29590)
O=C(CCl)Nc1cc(C(F)(F)F)cc(C(F)(F)F)c1 [KBO3]	YES	YES	19.85	3.78	46.645	49.26	69			
COc1ccc2c(c1)CCCN2C(=O)CCl [KB02]	YES	YES						YES	YES	YES

— US20200239530A1, “COMPOUNDS AND METHODS OF MODULATING PROTEIN DEGRADATION” (Vividion Therapeutics, Inc., priority 2017, published 2020)
